Results from US20030171377A1, “Antidiabetic agents” (priority 2001, published 2003).

What was measured:
3T3-L1 preadipocytes = assay: 3T3-L1 Adipocyte Differentiation Assay (ADPDIFF), Test A; type: cell-based; details: BODIPY lipid fluorescence, reported as % of BRL 49653 at 5 μM
Description: Cells are replenished with FBS containing media on day 5 of post-drug treatment and incubated for additional 4-6 days. Cells are stained with BODIPY a fluorescent lipophilic stain to quantitate the lipid content of the cells. The assay is optimized for a 96-well plate format. Approximately after 10 days of post-drug treatment, cells are fixed in 3% formalin solution for 15 min followed by staining with BODIPY (80 μg/ml) for 20 min at room temperature. The plate is then put through the CYTOFLUOR instrument to measure the fluorescence of BODIPY (excitation=485/20; emission=530/25).

[1] = system: endogenous nuclear receptors in CV-1 cells; assay: CV-1 Native Receptors Transcription Assay (MKNRCV1), Test C; type: cell-based, African green monkey; details: for MKNRCV1 % BRL @ 25 μM: percent activity of BRL 49653; for EC50: Chlorocebus sabaeus, CV-1 cells, 48 hours, unit inferred
[2] = system: CV-1 cells (FATP promoter luciferase reporter, 300 nM BRL); assay: ANTCV1 Antagonist Transcription Assay, Test B; type: cell-based, African green monkey; details: Chlorocebus sabaeus, 25 μM test compound with 300 nM BRL, 48 hrs, % BRL inhibition, read-out: ANTCV1 INHIB @ 25 μM
[3] = Blood Glucose Measurement (Glucose Δ), Test D; type: in vivo, mice; parameters: key to Glucose Δ: change in blood glucose, mg/dL; details: for Glucose Δ: 4 hours post dose, 4 hour fasted animals, tail vein whole blood; for % BRL (in vivo, beside Glucose Δ): glucose change relative to BRL
Description: Test D—Blood Glucose Measurement (Glucose Δ) Glucose is obtained 4 hours post dose via tail vein stick (5 μl whole blood) in awake, 4 hour fasted animals. Blood is drawn by capillary action into a glucose cuvette and read in a HemoCue Glucose Analyzer (Ryan Diagnostics). Blood is diluted 1:2 with saline if glucose levels are greater than 400 mg/dl (meter high range) and results multiplied by two.

Structure (SMILES) | ADPDIFF % BRL @ 5 μM (3T3-L1 preadipocytes) [% BRL] | MKNRCV1 % BRL @ 25 μM [1] [% BRL] | EC50 [1] [µM] | inhibition at 25 µM [2] [%] | Glucose Δ [3] | % BRL (in vivo, beside Glucose Δ) [3] [% BRL]
Cc1oc(-c2ccccc2)nc1CCOc1ccc(CC(C)(C(=O)O)n2cccc2)cc1 (centres unmarked) | 117 | 87 | 2 | -80.3 |  | 
CCc1nnc([C@H](Cc2ccc(OCCc3nc(-c4ccccc4)oc3C)cc2)n2cccc2)o1 | 88 | 12 |  | 53.8 | 46.5 | −20.0
Cc1oc(-c2ccccc2)nc1CCOc1ccc(CC(C(=O)O)n2cccc2C(=O)c2ccccc2)cc1 (centres unmarked) | 33 | 46 | 12.9 |  | 108.6 | −50.3
Cc1oc(-c2ccccc2)nc1CCOc1ccc(CC(C(=O)O)n2ccc(C(=O)c3ccccc3)c2)cc1 (centres unmarked) | 102 | 91 | 2.2 | -20 | −84.4 | 60.8
Cc1oc(-c2ccccc2)nc1CCOc1ccc(C[C@@H](C(=O)O)n2cccc2Cl)cc1 | 86 | 70 | 0.01 | -17.5 | 54.8 | −40.1
Cc1oc(-c2ccccc2)nc1CCOc1ccc(CC(C(=O)O)n2cccc2)cc1 (centres unmarked) | 67 | 86 |  |  | −196.0 | 109.4
Cc1oc(-c2ccccc2)nc1CCOc1ccc(C[C@@H](C(=O)O)n2c(C)cc(C(=O)C(F)(F)F)c2C)cc1 | 2 | 28 | 16 | 12 |  | 
CC(=O)c1cc(C)n([C@@H](Cc2ccc(OCCc3oc(-c4ccccc4)nc3C)cc2)C(=O)O)c1C | 0 | 27 |  | -15 |  | 
Cc1oc(-c2ccccc2)nc1CCOc1ccc(C[C@@H](C(=O)O)n2c(C)cc(Cl)c2C)cc1 | 28 | 55 |  | 5 |  | 
Cc1oc(-c2ccccc2)nc1CCOc1ccc(CC(C(=O)O)c2ccccc2)cc1 (centres unmarked) | 94 | 109 | 0.3 | -48 | 49.2 | −35.5
CN(CCOc1ccc(CC(C(=O)O)c2ccccc2)cc1)c1nc2ccccc2o1.Cl (centres unmarked) | 109 | 91 | 1 | -45 | 172.0 | −52.0
Cc1oc(-c2ccccc2)nc1CCOc1ccc(CC(C(=O)O)c2ccc(C(F)(F)F)cc2)cc1 (centres unmarked) | 107 | 78 | 0.2 | -49 | 246.8 | −180.4
Cc1oc(-c2ccccc2)nc1CCOc1ccc(CC(C(=O)O)c2cccnc2)cc1.Cl (centres unmarked) | 132 | 58 | 0.4 | -112 | −72.5 | 31.1
Cc1oc(-c2ccccc2)nc1CCOc1ccc(C[C@H](C(=O)O)c2ccccc2)cc1 | 31 | 50 |  | -44 |  | 
Cc1oc(-c2ccccc2)nc1CCOc1ccc(CC(C(=O)O)c2cccs2)cc1 (centres unmarked) | 88 | 111 |  | -127 |  | 
Cc1oc(-c2ccccc2)nc1CCOc1ccc(CC(C(=O)O)N2CCCC2=O)cc1 (centres unmarked) | 0 | 29 |  | -94 |  | 
Cc1oc(-c2ccccc2)nc1CCOc1ccc(CC(C(=O)O)c2ccncc2)cc1 (centres unmarked) | 2 | 20 |  | 55 |  | 
CN(CC#Cc1ccc(C[C@@H](C(=O)O)n2cccc2)cc1)c1ccccc1 | 83 | 92 | 2.9 | -31 | 182.8 | −55.3
O=C(O)[C@H](Cc1ccc(OCCSc2nc3ccccc3s2)cc1)n1cccc1 | 97 | 102 | 0.7 | -102 | 155.0 | −66.5
Cc1oc(-c2ccccc2)nc1CC#Cc1ccc(C[C@@H](C(=O)O)n2cccc2)cc1 | 100 | 94 |  |  | 62.0 | −45.3
Cc1oc(-c2ccccc2)nc1CCCc1ccc(C[C@@H](C(=O)O)n2cccc2)cc1 | 62 | 69 |  |  | −166.6 | 121.8
CN(CCCc1ccc(C[C@@H](C(=O)O)n2cccc2)cc1)c1ccccc1 | 61 | 68 |  |  | 63.0 | −27.0
Cc1oc(-c2ccccc2)nc1CCOc1ccc(CC(F)(C(=O)O)c2ccccc2)cc1 (centres unmarked) [drawing 216] | 122 | 63 | 9.5 | 37 |  | 
Cc1oc(-c2ccccc2)nc1CCOc1ccc(CC(C)(C)C(=O)O)cc1 [drawing 217] | 131 | 34 |  | 59 |  | 
Cc1oc(-c2ccccc2)nc1CCOc1ccc(CC(C)(C(=O)O)c2ccccc2)cc1 (centres unmarked) [drawing 218] | 99 | 44 | 13 | 65 |  | 
CCc1nnc(C(Cc2ccc(OCCc3nc(-c4ccccc4)oc3C)cc2)c2ccccc2)o1 (centres unmarked) [drawing 225] | 161 | 61 |  | 47 |  | 
Cc1sc(-c2ccccc2)nc1CCOc1ccc(C[C@@H](C(=O)O)n2cccc2)cc1 [drawing 269] | 92 | 76 | 9.2 | -20 |  | 
O=C(O)[C@H](Cc1ccc(C#CCN2CCC(c3ccccc3)CC2)cc1)n1cccc1 [drawing 288] | 112 | 78 | 1.3 | -42 |  | 
O=C(O)[C@H](Cc1ccc(/C=C/CN2CCC(c3ccccc3)CC2)cc1)n1cccc1 [drawing 292] | 183 | 40 |  | 44 |  | 
O=C(O)[C@H](Cc1ccc(CCCN2CCC(c3ccccc3)CC2)cc1)n1cccc1 [drawing 293] | 38 | 22 |  | 50 |  | 
